How the values were obtained:
[1] = test system: Toll-like receptor 4 (Tlr4) mRNA in IEC-6 cells; assay: Tlr4 mRNA and microRNA expression in IEC-6 cells treated with I3C; assay type: cell-based, rat
Method: Rat intestinal epithelial cell line IEC-6 was treated with aryl hydrocarbon receptor (AHR) agonist indole-3-carbinol (13C) for 4 and 6 hours, and then the expression of Toll-like receptor 4 (Tlr4) mRNA and the microRNAs, which have been reported to down-regulate Tlr4 transcription, were quantified, respectively. Referring now to FIG. 22, the mRNA expression of Tlr4 was quantified in IEC-6 cells treated with AHR agonist […] for 6 hours. Data are represented as mean±SEM; *p<0.05 between indicated groups; each dot represents an individual sample. […] Referring now to FIG. 23, the expression of let-7i, miR-223, and miR-146b, which are microRNAs known to inhibit Tlr4 mRNA expression, was quantified in IEC-6 cells treated with AHR agonist […] for 4 hours. Data are represented as mean±SEM; *p<0.05 between indicated groups; each dot represents an individual sample.

[2] = test system: mice with NEC; assay: Maternal I3C administration, Tnf alpha and Il6 mRNA in ileum of offspring with NEC; assay type: in vivo, mouse; conditions: mums 25 mg/kg oral gavage E7 to P7, NEC groups
Method: The pups whose mums received 25 mg/kg indole-3-carbinol (13C) by oral gavage starting from the embryonic age 7 (E7) of the fetus until the postnatal day 7 (P7) were included in maternal […]-rich group, while the pups whose mums received vehicle were included in maternal […]-free group. Necrotizing enterocolitis (NEC) was induced in 7-day-old mouse pups by gavage feeding and hypoxia exposure for 4 days. The ileum was harvested at the end of experiment and the mRNA expression of target genes was analyzed by qPCR. Referring now to FIG. 8, the mRNA expression of pro-inflammatory cytokine tumor necrosis factor alpha (Tnf alpha) was quantified in the ileum of experimental NEC models. Data are represented as mean±SEM; *p<0.05 between indicated groups; each dot represents an individual mouse. […] Referring now to FIG. 9, the mRNA expression of pro-inflammatory cytokine Interleukin-6 (Il6) was quantified in the ileum of experimental NEC models. Data are represented as mean±SEM; *p<0.05 between indicated groups; each dot represents an individual mouse.

**Q.** How did the “expression of let-7i” value ([1]; 4 hours) turn out when `OCc1c[nH]c2ccccc12` [I3C, indole-3-carbinol] was run?
**A.** significantly increased

**Q.** What about the “expression of miR-146b” value ([1]; 4 hours) of the same compound?
**A.** significantly increased

**Q.** And the “expression of miR-223” value ([1]; 4 hours)?
**A.** significantly increased

**Q.** And the “mRNA expression of Tlr4” value ([1]; 6 hours)?
**A.** significantly reduced the expression of Tlr4 mRNA

**Q.** And the “Il6 mRNA expression in offspring” value [2]?
**A.** significantly reduced the Il6 expression

**Q.** What about the “Tnf alpha mRNA expression in offspring” value [2] of the same compound?
**A.** significantly reduced the Tnf alpha expression

Reference: patent US11458141B2, “Aryl hydrocarbon receptor (AhR) agonists for the prevention and treatment of inflammatory disorders” (The Johns Hopkins University, priority 2017, dated 2022)
